Reference: patent publication US4714774A, “Benzoic acid derivatives and their production” (Takeda Chemical Industries, Ltd., priority 1984, dated 1987)

Experiments:
[1] = tested on: bronchoconstriction in guinea pigs due to an intravenous administration of synthetic leukotriene D4 (LTD4); assay: Inhibition of LTD4-induced bronchoconstriction in guinea pigs, oral dosing (Konzett-Rossler method); format: in vivo, guinea pig (Hartley strain); conditions: Cavia porcellus, 1 h, guinea pig, p.o. one hour before LTD4 10 μg/kg i.v., inhibition of overflow volume 30 seconds after LTD4, read-out: ID50 (p.o.) (50% inhibitory dose)
Protocol: Guinea pigs of Hartley strain, both male and female, with body weights about 400 g were assigned to groups of 6 to 10 individuals, and the bronchoconstriction due to LTD4 was measured according to the method of Konzett-Rossler [Konzett, H. and Rossler, R.: Naunyn-Schmiedebergs Archiv fur Experimentelle Pathologie und Pharmakologie 195, 71-74 (1940)]. Each guinea pig was fixed in supine position under urethane anesthesia (1.5 g/kg, intraperitoneal) and the trachea was incised and connected to an artificial respiration apparatus, Rodent Respirator Model 680 [Harvard Apparatus Company, U.S.A.] via a cannula. The branch tube of this tracheal cannula was connected to Bronchospasm Transducer Model 7020 [Ugobasil Biological Researach Apparatus, Italy]. Under the conditions of 4 to 7 ml of air per stroke, 70 strokes per minute and a lung loading pressure of 10 cmH2 O, the volume of overflowing air was recorded on Rectigraph-8S (San-ei Sokki Co. Ltd., Japan) via a transducer. After administration of gallamine.triethiodide (1 mg/kg, i.v.), a solution of LTD4 in physiological saline (10 μg/kg) was intravenously administered and the bronchoconstriction elicited thereby was recorded for 15 minutes. […]
*^1 ID50 (50% inhibitory dose): Each value was calculated from […]

mice = assay: Acute oral toxicity in mice; format: in vivo, mouse (Jcl:ICR strain); conditions: male mice
Protocol: Five 5-week-old male mice per group, of Jcl:ICR strain, weighing about 30 g each, were used. Compound (I')-1 was suspended in a 5% solution of gum arabic and administered orally at the level of 0.2 ml per 10 grams body weight.

In the case of `CCCc1c(OCCCOc2ccc(C(=O)O)cc2Br)ccc(C(C)=O)c1OC(C)=O` [Compound (I')-1, 4-[3-(3-acetoxy-4-acetyl-2-propylphenoxy)propoxy]-3-bromobenzoic acid], the ED50 [1] is reported as 47 µmol/kg, the autopsy findings (mice; oral 500 mg/kg, autopsy after 7 days) is reported as “did not reveal any abnormalities” and the “symptoms attributable to the compound” value (mice; single oral dose 500 mg/kg) is reported as “no symptoms that could be attributable to compound (I')-1”.
